From BindingDB's records for doi:10.1016/j.bioorg.2016.12.002 (China Pharmaceutical University, 2017)

Target: Hepatocyte growth factor receptor/Proto-oncogene tyrosine-protein kinase receptor Ret (Homo sapiens, UniProt P07949+P08581)
Test: In Vitro c-Met Enzyme Assay
Method: The c-Met kinase activity as tested with enzyme-linked immunosorbent assays (ELISAs) as previously reported protocol [Qiang et al., Bioorg. Med. Chem., 24:3353-3358; Shi et al., Bioorg. Med. Chem., 22:4735-4744]. Briefly, reaction cocktail containing c-met kinase and various concentrations of measured compound or 0.1% DMSO (negative control) was incubated at 37 °C for five minutes. Then the mixture of ATP and substrate peptide was added and incubated for another 30 min. Afer that, the reaction was terminated and transferred into a pre-coated 96-well plate, and incubated for another 1 h at 37 °C. Phosphate-buffered saline (PBS) containing 0.1% Tween 20 (T-PBS) was applied to wash the plate three times. anti-phosphotyrosine (PY99) antibody was then added. Horseradish peroxidase-conjugated goat anti-mouse IgG was added after 30 min. Finally, the plate was analyzed with multi-well spectrophotometer at […].

Sequence of Hepatocyte growth factor receptor/Proto-oncogene tyrosine-protein kinase receptor Ret (P08581 whole entry): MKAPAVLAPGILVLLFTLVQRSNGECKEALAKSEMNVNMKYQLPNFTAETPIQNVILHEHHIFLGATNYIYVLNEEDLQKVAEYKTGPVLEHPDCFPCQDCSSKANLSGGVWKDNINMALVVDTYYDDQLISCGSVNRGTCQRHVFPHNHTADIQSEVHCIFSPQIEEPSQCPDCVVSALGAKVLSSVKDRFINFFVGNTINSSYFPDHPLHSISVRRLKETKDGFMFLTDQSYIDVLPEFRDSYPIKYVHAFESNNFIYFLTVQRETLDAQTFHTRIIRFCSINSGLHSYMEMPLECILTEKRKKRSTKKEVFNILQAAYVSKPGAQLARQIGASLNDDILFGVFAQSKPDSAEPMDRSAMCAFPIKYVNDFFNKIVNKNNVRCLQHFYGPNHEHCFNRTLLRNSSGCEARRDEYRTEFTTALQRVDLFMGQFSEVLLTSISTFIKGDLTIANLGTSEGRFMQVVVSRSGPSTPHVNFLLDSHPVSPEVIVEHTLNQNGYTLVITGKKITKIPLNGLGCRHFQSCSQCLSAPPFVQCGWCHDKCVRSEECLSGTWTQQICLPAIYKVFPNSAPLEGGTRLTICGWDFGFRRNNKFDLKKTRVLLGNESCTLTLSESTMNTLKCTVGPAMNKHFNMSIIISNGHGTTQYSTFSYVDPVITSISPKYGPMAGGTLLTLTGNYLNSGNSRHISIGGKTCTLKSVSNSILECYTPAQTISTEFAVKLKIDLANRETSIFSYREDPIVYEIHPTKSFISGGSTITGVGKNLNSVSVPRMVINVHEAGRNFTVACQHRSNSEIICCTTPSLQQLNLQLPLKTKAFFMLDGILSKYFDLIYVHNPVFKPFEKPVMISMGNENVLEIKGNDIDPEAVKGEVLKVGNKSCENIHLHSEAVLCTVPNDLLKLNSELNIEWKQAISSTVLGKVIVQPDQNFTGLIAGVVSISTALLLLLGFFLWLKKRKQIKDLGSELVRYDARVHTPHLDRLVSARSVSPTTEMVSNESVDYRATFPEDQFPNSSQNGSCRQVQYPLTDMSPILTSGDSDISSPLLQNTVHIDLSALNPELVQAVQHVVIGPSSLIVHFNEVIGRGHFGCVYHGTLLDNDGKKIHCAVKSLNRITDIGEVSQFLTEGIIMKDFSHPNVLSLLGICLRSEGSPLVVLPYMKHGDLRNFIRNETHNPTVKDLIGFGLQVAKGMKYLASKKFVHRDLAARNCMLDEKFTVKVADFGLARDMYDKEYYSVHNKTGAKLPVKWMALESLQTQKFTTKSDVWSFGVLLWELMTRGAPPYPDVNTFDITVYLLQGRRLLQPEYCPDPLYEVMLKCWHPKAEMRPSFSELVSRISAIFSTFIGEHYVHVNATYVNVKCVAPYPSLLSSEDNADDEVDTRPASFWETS
Sequence of Hepatocyte growth factor receptor/Proto-oncogene tyrosine-protein kinase receptor Ret (P07949 whole entry): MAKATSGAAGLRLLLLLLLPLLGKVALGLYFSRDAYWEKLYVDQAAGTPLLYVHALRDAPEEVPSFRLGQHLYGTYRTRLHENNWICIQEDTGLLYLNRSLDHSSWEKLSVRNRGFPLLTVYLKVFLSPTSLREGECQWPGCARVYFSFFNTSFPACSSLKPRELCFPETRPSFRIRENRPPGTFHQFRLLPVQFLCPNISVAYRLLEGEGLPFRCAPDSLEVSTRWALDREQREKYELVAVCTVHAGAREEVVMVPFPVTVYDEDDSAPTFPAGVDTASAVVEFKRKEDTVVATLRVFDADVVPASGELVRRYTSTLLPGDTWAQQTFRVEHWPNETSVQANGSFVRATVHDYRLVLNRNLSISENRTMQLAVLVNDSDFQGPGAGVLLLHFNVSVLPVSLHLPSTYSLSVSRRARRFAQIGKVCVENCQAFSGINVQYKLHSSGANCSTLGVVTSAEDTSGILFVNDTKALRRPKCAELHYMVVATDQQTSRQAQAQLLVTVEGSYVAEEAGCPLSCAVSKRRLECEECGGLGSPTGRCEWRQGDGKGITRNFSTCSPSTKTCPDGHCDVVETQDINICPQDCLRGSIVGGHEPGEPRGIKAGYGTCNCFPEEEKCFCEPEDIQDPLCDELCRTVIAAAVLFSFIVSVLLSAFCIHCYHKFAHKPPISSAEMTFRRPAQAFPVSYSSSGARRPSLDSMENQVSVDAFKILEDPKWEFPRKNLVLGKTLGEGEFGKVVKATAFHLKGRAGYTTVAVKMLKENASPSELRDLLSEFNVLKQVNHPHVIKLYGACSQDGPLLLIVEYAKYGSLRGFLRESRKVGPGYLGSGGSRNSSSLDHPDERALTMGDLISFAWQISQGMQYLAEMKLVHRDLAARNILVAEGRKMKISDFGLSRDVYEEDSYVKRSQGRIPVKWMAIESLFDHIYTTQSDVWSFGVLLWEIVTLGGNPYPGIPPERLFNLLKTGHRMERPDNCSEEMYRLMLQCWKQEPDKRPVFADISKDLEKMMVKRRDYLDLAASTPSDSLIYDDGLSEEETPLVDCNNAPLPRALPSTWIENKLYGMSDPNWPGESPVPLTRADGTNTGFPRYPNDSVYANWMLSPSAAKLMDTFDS

| SMILES | IC50 [µM] |
| --- | --- |
| COc1ccc2c(OCc3nnc4ccc(-c5ccccc5)nn34)ccnc2c1 [7-methoxy-4-({6-phenyl-[1,2,4]triazolo[4,3-a]pyridazin-3-yl}methoxy)quinoline] | 0.06 |
| Clc1ccc(-c2cn3cccc(COc4nnc5ccc(Cl)nn45)c3n2)c(Cl)c1 [6-Chloro-3-((2-(2,4-dichlorophenyl)imidazo[1,2-a]pyridin-8-yl)methoxy)-[1,2,4]triazolo[4,3-b] pyridazine (7g)] | 12.2 |
| Clc1ccc(Cl)c(-c2cn3cccc(COc4nnc5ccc(Cl)nn45)c3n2)c1 [6-chloro-3-((2-(2,5-dichlorophenyl)imidazo[1,2-a]pyridin-8-yl)methoxy)-[1,2,4]triazolo[4,3-b] pyridazine (7e)] | 12.3 |
